Literature values, collected in US20260256788A1, “COMPOSITIONS COMPRISING MELATONIN, 5-FLUOROURACIL AND DIMETHYL SULFOXIDE FOR USE IN THE TREATMENT OF ACTINIC KERATOSIS” (RepoCeuticals A/S, priority 2023, published 2026).

Key:
[1] = not given; remark: listed apart in the source

For `O=c1[nH]cc(F)c(=O)[nH]1` [5-FU, 5-fluoro-2,4(1H;3H)-pyrimidinedione], the “solubility in DMSO” value (in DMSO) is given as “very soluble” and the “solubility in water” value [1] is given as “only sparingly soluble”.

In the case of `COc1ccc2[nH]cc(CCNC(C)=O)c2c1` [melatonin, N-acetyl-5-methoxytryptamine], the “solubility of melatonin in DMSO” value (in DMSO at room temperature) is given as no less than 232 mg/mL.
